According to patent US20250296971A1, “GASTRIC INHIBITORY PEPTIDE RECEPTOR LIGANDS” (priority 2021, published 2025):
*1 amine or outer side, *2 acyl side, *3 side chain or, on linkers, in order; H or OH if unused. Where a SMILES comes first, the peptide text is derived from it. Bridges are numbered along the chain shown (N, C = ends). [ ]: non-standard residue; d: D form. The star is where a group is joined. X5 = NC(=O)[C@H](CCCCNC(=O)CN1CCN(CC(=O)O)CCN(CC(=O)O)CCN(CC(=O)O)CC1)NC(=O)CCC(=O)NCCCOCCOCCOCCCN*; X3 = O=C(O)CN1CCN(CC(=O)O)CCN(CC(=O)NCCCOCCOCCOCCCN*)CCN(CC(=O)O)CC1; Pro(trans-4-NH2) = O=C([C@@H]1C[C@@H](N[*:3])CN1[*:1])[*:2]; DOTA = O=C(O)CN1CCN(CC(=O)O)CCN(CC(=O)*)CCN(CC(=O)O)CC1; 2Lut = 2,6-lutidylidene bridge between two thiols; Trp(5-Cl) = N[C@@H](Cc1c[nH]c2ccc(Cl)cc12)C(=O)O; APAc = 4-amino-1-carboxymethylpiperidine; mXylylene = c1cc(C[*:1])cc(C[*:2])c1; Glutaryl = O=C(CCCC(=O)[*:2])[*:1]; AGLU = 1-amino-1-deoxy-D-glucitol; Suc = O=C(CCC(=O)[*:2])[*:1]; glu(AGLU) = not defined here; hSer = N[C@@H](CCO)C(=O)O; Api = NC1(C(=O)O)CCNCC1

T1: GIPR (CHO-K1-hGIPR cells) (Homo sapiens, UniProt P48546)
T1 construct: host or cells: CHO-K1
T1 sequence (P48546 22-466): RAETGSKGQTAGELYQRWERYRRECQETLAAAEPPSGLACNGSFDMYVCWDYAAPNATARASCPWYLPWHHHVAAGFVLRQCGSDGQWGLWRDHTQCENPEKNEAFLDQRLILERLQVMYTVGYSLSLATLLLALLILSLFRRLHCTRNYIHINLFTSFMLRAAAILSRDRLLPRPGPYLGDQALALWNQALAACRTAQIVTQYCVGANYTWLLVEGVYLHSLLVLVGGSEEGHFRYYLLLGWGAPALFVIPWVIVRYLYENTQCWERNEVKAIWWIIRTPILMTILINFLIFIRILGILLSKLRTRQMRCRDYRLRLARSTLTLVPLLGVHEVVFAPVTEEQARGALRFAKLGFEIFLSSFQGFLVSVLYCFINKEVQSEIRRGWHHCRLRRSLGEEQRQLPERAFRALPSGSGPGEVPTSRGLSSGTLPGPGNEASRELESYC

T2: human GIPR (HEK-GIPR cells) (Homo sapiens, UniProt P48546)
T2 construct: host or cells: HEK293
T2 sequence (P48546 22-466): T1 sequence (P48546 22-466)


Assays:
[1] = molecular target: Recombinant soluble human NEP (Homo sapiens, UniProt P08473); assay: Proteolytic stability assay against NEP; details: NEP 100 ng/mL, compound 10 μM, 37° C., % intact compound remaining
Sequence of Recombinant soluble human NEP (P08473 52-750 limits assumed): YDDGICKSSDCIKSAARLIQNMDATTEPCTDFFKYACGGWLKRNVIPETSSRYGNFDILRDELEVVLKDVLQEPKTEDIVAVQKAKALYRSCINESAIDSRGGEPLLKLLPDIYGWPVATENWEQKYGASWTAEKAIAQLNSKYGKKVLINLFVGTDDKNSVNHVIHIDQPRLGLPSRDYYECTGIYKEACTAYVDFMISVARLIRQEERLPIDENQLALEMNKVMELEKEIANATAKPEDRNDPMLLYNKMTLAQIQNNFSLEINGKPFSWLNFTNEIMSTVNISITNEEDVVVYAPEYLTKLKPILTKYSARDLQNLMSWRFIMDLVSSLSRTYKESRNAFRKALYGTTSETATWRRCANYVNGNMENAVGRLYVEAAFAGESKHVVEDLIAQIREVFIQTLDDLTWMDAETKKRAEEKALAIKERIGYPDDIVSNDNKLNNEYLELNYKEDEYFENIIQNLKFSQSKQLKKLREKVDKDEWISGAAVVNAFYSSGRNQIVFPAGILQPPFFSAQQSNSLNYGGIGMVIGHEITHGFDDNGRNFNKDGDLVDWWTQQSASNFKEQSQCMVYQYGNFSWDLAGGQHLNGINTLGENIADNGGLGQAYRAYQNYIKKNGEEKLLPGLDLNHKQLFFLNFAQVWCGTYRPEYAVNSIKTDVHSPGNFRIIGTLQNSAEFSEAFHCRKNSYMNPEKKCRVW

[2] = Plasma stability assay, mouse plasma; format: in vitro ADME; details: 37° C., % intact compound remaining after 4 h or 24 h
Method: (§1) In order to determine the stability of selected compounds of the invention in human and mouse plasma, a plasma stability assay was carried out. Such plasma stability assay measures degradation of compounds of the present invention in blood plasma. This is an important characteristic of a compound as compounds, with the exception of pro-drugs, which rapidly degrade in plasma, generally show poor in vivo efficacy. […] The stability is sufficient for the diagnostic, therapeutic and theragnostic use of these compounds according to the present invention.
(§2) The plasma stability samples were prepared by spiking 50 μL plasma aliquots (all K2EDTA) with 1 μL of a 0.5 mM compound stock solution in DMS0. After vortexing the samples were incubated in a Thermomixer at 37° C. for 0, 4 and 24 hours. After incubation the samples were stored on ice until further treatment. All samples were prepared in duplicates.
(§3) A suitable internal standard was added to each sample (1 μL of a 0.5 mM stock solution in DMSO). Protein precipitation was performed by addition of 250 μL of acetonitrile containing 1% trifluoroacetic acid. After incubation at room temperature for 30 min the precipitate was separated by centrifugation and 150 μL of the supernatant was diluted with 150 μL of 1% aqueous formic acid.
(§4) Additionally, recovery was determined by spiking a pure plasma sample that only contained the internal standard after treatment with a certain amount of the compound.
(§5) Carry-over was evaluated by analysis of a blank sample (20% acetonitrile) after the highest calibration sample.

[3] = molecular target: T1, GIPR (CHO-K1-hGIPR cells); assay: FACS binding assay; details: competition with 20 nM GIP-057, 4° C., 1 hour, read-out: pIC50 Category (converted)
Summary of the method: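 Peptide binding read by flow cytometry as APC-channel median fluorescence, fitted with a four-parameter logistic to yield EC50 or IC50. Cells were hGIPR-transfected CHO-K1 in PBS with 1% FCS, detected with 1 μg/mL APC-streptavidin, 30 min on ice.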

[4] = Plasma stability assay, human plasma; format: in vitro ADME; details: 37° C., % intact compound remaining after 4 h or 24 h
Method: as §1, §2, §3, §4, §5

[5] = molecular target: T2, human GIPR (HEK-GIPR cells); assay: cAMP assay; format: cell-based; details: 37° C., 30 min, cAMP-Glo
Method: In order to determine the inhibitory or stimulatory activity of compounds according to the present invention of GIPR-expressing cells, a cAMP activity assay was established.
HEK-GIPR cells were generated by InSCREENeX GmbH (Germany) using the targeting vector pTAR to insert the minimal CMV promoter upstream of the human GIPR cDNA by recombinase-mediated cassette exchange into the pre-tagged HEK293 cell line.
HEK-GIPR cells were cultured in RPMI-1640 medium (Sigma-Aldrich, #R0883) including 10% fetal calf serum (FCS), 8 mM L-glutamine, 100 U/mL penicillin, 100 μg/mL streptomycin and 1 mg/mL Geneticin. Cells were detached with Accutase (Biolegend, #BLD-423201) and diluted in culture medium to a final concentration of 100,000 cells per mL. 100 μL of the cell suspension were transferred to white poly-L-lysine-coated 96-well plates with optical bottom (Nunc, #165306) and incubated overnight in a humidified atmosphere containing 5% CO2 at 37° C.
For cAMP detection, the cAMP-Glo™ Assay (Promega, #V1501) was employed. […] After 10 min of incubation, luminescence was read using a SpectraMax M5 Plate Reader (Molecular Devices).
Relative luminescence values (RLU) were plotted against peptide concentration and four parameter logistic (4PL) curve fitting and calculations of EC50/pEC50 and IC50/pIC50, respectively, were performed using ActivityBase software.

[6] = molecular target: human Gastric Inhibitory Peptide Receptor (human) (UniProt P48546); assay: FACS competition with GIP-057 on CHO-K1-hGIPR cells; pIC50 category B: 7.1-8.0
[7] = molecular target: biotinylated extracellular domain of the human GIP receptor (bioGIPR) (human) (UniProt P48546); assay: SPR single cycle kinetics, bioGIPR captured on chip; category D: t1/2 <2.0 min
[8] = molecular target: biotinylated extracellular domain of the human GIP receptor (bioGIPR) (human) (UniProt P48546); assay: SPR single cycle kinetics, bioGIPR captured on chip; category B: pKD 8.1-9.0

NEP stability category [1] | Mouse plasma stability category [2] | IC50 [3] [nM] | Human plasma stability category [4] | Mean pEC50 ± SD [5] | pIC50 [6] [pic50] | t1/2 [7] [min] | pKD [8] [pkd] | Molecule
A (>80% intact after 24 hours) | B (>80% intact after 4 hours) | 10 to 79.4 | – | – | – | – | – | CC[C@H](C)[C@@H]1NC(=O)[C@H](CC(C)C)NC(=O)[C@H](C)NC(=O)[C@@H](NC(=O)[C@H](CC(C)C)NC(=O)[C@H](CCC(=O)O)NC(=O)[C@@H]2CCCN2C(=O)[C@H](Cc2c[nH]c3ccccc23)NC(=O)[C@H](Cc2c[nH]c3ccccc23)NC(=O)[C@H](CC(=O)O)NC(=O)[C@H](Cc2ccc(O)cc2)NC(=O)CCC(=O)NCCCOCCOCCOCCCNC(=O)CN2CCN(CC(=O)O)CCN(CC(=O)O)CCN(CC(=O)O)CC2)CSCc2cccc(c2)CSC[C@@H](C(N)=O)NC1=O [GIP-126, DOTA-Ttds-Tyr-Asp-Trp-Trp-Pro-Glu-Leu-[Cys(3MeBn)-Ala-Leu-Ile-Cys]-NH2] ({X3-Suc}-YDWWPELCALIC-NH2; linker 8-12 via mXylylene)
A (>80% intact after 24 hours) | B (>80% intact after 4 hours) | 10 to 79.4 | – | – | – | – | – | CC[C@H](C)[C@@H]1NC(=O)[C@H](CC(C)C)NC(=O)[C@H](C)NC(=O)[C@@H](NC(=O)[C@H](CC(C)C)NC(=O)[C@H](CCC(=O)O)NC(=O)[C@@H]2CCCN2C(=O)[C@H](Cc2c[nH]c3ccccc23)NC(=O)[C@H](Cc2c[nH]c3ccccc23)NC(=O)[C@H](CC(=O)O)NC(=O)[C@H](Cc2ccc(O)cc2)NC(C)=O)CSCc2cccc(c2)CSC[C@@H](C(=O)NCCCOCCOCCOCCCNC(=O)CCC(=O)N[C@@H](CCCCNC(=O)CN2CCN(CC(=O)O)CCN(CC(=O)O)CCN(CC(=O)O)CC2)C(N)=O)NC1=O [GIP-127, Ac-Tyr-Asp-Trp-Trp-Pro-Glu-Leu-[Cys(3MeBn)-Ala-Leu-Ile-Cys]-Ttds-Lys(DOTA)-NH2] (Ac-YDWWPELCALIC-X5; linker 8-12 via mXylylene)
A (>80% intact after 24 hours) | B (>80% intact after 4 hours) | 10 to 79.4 | B (>80% intact after 4 hours) | – | – | – | – | CC[C@H](C)[C@@H]1NC(=O)[C@H](CC(C)C)NC(=O)[C@H](C)NC(=O)[C@@H](NC(=O)[C@H](CC(C)C)NC(=O)[C@H](CCC(=O)O)NC(=O)[C@@H]2CCCN2C(=O)[C@H](Cc2c[nH]c3ccccc23)NC(=O)[C@H](Cc2c[nH]c3ccccc23)NC(=O)[C@H](CC(=O)O)NC(C)=O)CSCc2cccc(c2)CSC[C@@H](C(N)=O)NC1=O [GIP-244, Ac-Asp-Trp-Trp-Pro-Glu-Leu-[Cys(3MeBn)-Ala-Leu-Ile-Cys]-NH2] (Ac-DWWPELCALIC-NH2; linker 7-11 via mXylylene)

Further lines, the molecule ahead of its results:

Molecule | NEP stability category [1] | Mouse plasma stability category [2] | IC50 [3] [nM] | Human plasma stability category [4] | Mean pEC50 ± SD [5] | pIC50 [6] [pic50] | t1/2 [7] [min] | pKD [8] [pkd]
GIP(1-30) C-ter. ^natInDOTA | – | – | – | – | 12.0 ± 0.1 | – | – | –
{AGLU-Glutaryl-APAc}-SW[Trp(5-Cl)][Pro(trans-4-NH2)][hSer][dL]C[Api](DOTA)LIC-{APAc-glu(AGLU)-NH2} (linker 7-11 via 2Lut; reading uncertain) [AGLU-Glutar-APAc-Ser-Trp-5Clw-Tap-Hse-leu-[Cys(2Lut)-Apc(DOTA)-Leu-Ile-Cys]-APAc-glu(AGLU)-NH2] | – | – | – | – | – | 7.1 to 8 | < 2 | 8.1 to 9
